According to PubChem BioAssay AID330 (DTP/NCI, 2004):
Values joined by “and” are separate entries in the source; they are usually repeats but may differ in a detail not shown here. Equal values may be shown once. Inconclusive results and toxic doses are left out. How the source made its calls: active means survival T/C of 150% or more; inactive means T/C below 125% in these data.

Tested on: P388 leukemia ip, CD2F1 mice, survival T/C
Assay: NCI In Vivo Anticancer Drug Screen. Data for tumor model P388 Leukemia (intraperitoneal) in CD2F1 (CDF1) mice
Conditions: endpoint: median survival time, higher = longer survival
In short: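 Mice carrying the transplanted tumor received test compound or vehicle. Survival was recorded in each group, and the value is the treated-group measurement divided by that of the vehicle-treated control group.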

[1] = dose: 100.0 mg/kg/injection, schedule: Q01DX001 (ip), vehicle: saline
[2] = dose: 25.0 mg/kg/injection, schedule: Q01DX009 (ip), vehicle: Klucel (hydroxypropylcellulose) (HPC)
[3] = dose: 50.0 mg/kg/injection, schedule: Q01DX009 (ip), vehicle: Klucel (hydroxypropylcellulose) (HPC)
[4] = dose: 100.0 mg/kg/injection, schedule: Q01DX009 (ip), vehicle: Klucel (hydroxypropylcellulose) (HPC)
[5] = dose: 50.0 mg/kg/injection, schedule: Q04DX003 (ip), vehicle: saline with Tween-80
[6] = dose: 100.0 mg/kg/injection, schedule: Q04DX003 (ip), vehicle: saline with Tween-80
[7] = dose: 25.0 mg/kg/injection, schedule: Q01DX005 (ip), vehicle: Klucel (hydroxypropylcellulose) (HPC)
[8] = dose: 50.0 mg/kg/injection, schedule: Q01DX005 (ip), vehicle: Klucel (hydroxypropylcellulose) (HPC)
[9] = dose: 100.0 mg/kg/injection, schedule: Q01DX005 (ip), vehicle: Klucel (hydroxypropylcellulose) (HPC)
[10] = dose: 200.0 mg/kg/injection, schedule: Q01DX005 (ip), vehicle: Klucel (hydroxypropylcellulose) (HPC)
[11] = dose: 50.0 mg/kg/injection, schedule: Q01DX009 (ip), vehicle: saline
[12] = dose: 100.0 mg/kg/injection, schedule: Q01DX009 (ip), vehicle: saline
[13] = dose: 50.0 mg/kg/injection, schedule: Q01DX005 (ip), vehicle: saline with Tween-80
[14] = dose: 100.0 mg/kg/injection, schedule: Q01DX005 (ip), vehicle: saline with Tween-80
[15] = dose: 200.0 mg/kg/injection, schedule: Q01DX005 (ip), vehicle: saline with Tween-80
[16] = dose: 25.0 mg/kg/injection, schedule: Q01DX009 (ip), vehicle: saline with Tween-80
[17] = dose: 50.0 mg/kg/injection, schedule: Q01DX009 (ip), vehicle: saline with Tween-80
[18] = dose: 200.0 mg/kg/injection, schedule: Q01DX009 (ip), vehicle: saline

Measured: T/C

CCNC(=O)/N=c1/sc([N+](=O)[O-])cn1CC(=O)N(C)C(=O)OCC
inactive: dose: 25.0 mg/kg/injection, schedule: Q01DX001 (ip), vehicle: saline 100 % of control | dose: 50.0 mg/kg/injection, schedule: Q01DX001 (ip), vehicle: saline 98 % of control | [1] 100 % of control

COC(=O)C(Br)CCCC(Br)C(=O)OC (centres undefined)
inactive: dose: 25.0 mg/kg/injection, schedule: Q01DX009 (ip), vehicle: distilled water + Tween-80 97 % of control | dose: 50.0 mg/kg/injection, schedule: Q01DX009 (ip), vehicle: distilled water + Tween-80 106 % of control | dose: 100.0 mg/kg/injection, schedule: Q01DX009 (ip), vehicle: distilled water + Tween-80 103 % of control | dose: 200.0 mg/kg/injection, schedule: Q01DX009 (ip), vehicle: distilled water + Tween-80 104 % of control

O=C(OC1(c2ccc3ccccc3c2)OC(=O)c2ccccc21)c1ccccc1C(=O)c1cccc2ccccc12 (centres undefined)
inactive: dose: 100.0 mg/kg/injection, schedule: Q01DX001 (ip), vehicle: Klucel (hydroxypropylcellulose) (HPC) 92 % of control | dose: 200.0 mg/kg/injection, schedule: Q01DX001 (ip), vehicle: Klucel (hydroxypropylcellulose) (HPC) 91 % of control | dose: 400.0 mg/kg/injection, schedule: Q01DX001 (ip), vehicle: Klucel (hydroxypropylcellulose) (HPC) 91 % of control

O=C(CC(c1ccccc1)C(Sc1ccccc1)(Sc1ccccc1)Sc1ccccc1)c1ccccc1 (centres undefined)
inactive: [2] 100 % of control | [3] 100 % of control | [4] 100 % of control and 105 % of control

C[n+]1ccn2cc(S(=O)(=O)[O-])ccc21
inactive: dose: 3.12 mg/kg/injection, schedule: Q01DX009 (ip), vehicle: saline 92 % of control | dose: 6.25 mg/kg/injection, schedule: Q01DX009 (ip), vehicle: saline 95 % of control

Nc1ccc(-c2csc(-c3ccccc3)n2)c(Cl)c1
inactive: dose: 12.5 mg/kg/injection, schedule: Q01DX009 (ip), vehicle: Klucel (hydroxypropylcellulose) (HPC) 98 % of control and 99 % of control | [2] 103 % of control and 115 % of control | [3] 103 % of control and 113 % of control

CC(C)(C)C(=O)CC(O)(C(F)(F)Cl)C(F)(F)Cl
inactive: [5] 90 % of control | [6] 95 % of control | dose: 200.0 mg/kg/injection, schedule: Q04DX003 (ip), vehicle: saline with Tween-80 105 % of control

CCC(C)c1cc(/C=C2/OC(=O)c3ccccc32)cc(C(C)CC)c1O (centres undefined)
inactive: dose: 100.0 mg/kg/injection, schedule: Q04DX002 (ip), vehicle: saline 100 % of control | dose: 200.0 mg/kg/injection, schedule: Q04DX002 (ip), vehicle: saline 99 % of control | dose: 400.0 mg/kg/injection, schedule: Q04DX002 (ip), vehicle: saline 93 % of control

Clc1ccc(C2Oc3ccccc3-c3nc4ncccc4cc32)cc1 (centres undefined)
inactive: [7] 86 % of control | [8] 86 % of control | [9] 88 % of control | [10] 91 % of control

CCN(CC)CCSS(=O)(=O)CCN(CC)CC
inactive: dose: 50.0 mg/kg/injection, schedule: Q01DX005 (ip), vehicle: saline 100 % of control | dose: 100.0 mg/kg/injection, schedule: Q01DX005 (ip), vehicle: saline 109 % of control

CC(=O)c1ccc2c3c(cccc13)C(=O)OC2=O
inactive: [7] 100 % of control | [8] 100 % of control and 101 % of control | [9] 102 % of control and 97 % of control | [10] 104 % of control

CCCCCCCCCCCCCCCC(=O)N(CCCN(C)C)C(C)(C)CCC(C)(C)N(CCCN(C)C)C(=O)CCCCCCCCCCCCCCC
inactive: dose: 25.0 mg/kg/injection, schedule: Q01DX009 (ip), vehicle: other 98 % of control | dose: 50.0 mg/kg/injection, schedule: Q01DX009 (ip), vehicle: other 96 % of control

COc1cccc2[se]c(C(=O)O)cc12
inactive: [11] 92 % of control | [12] 89 % of control

CC(=O)Nc1ccc(C(=O)C(C)Cl)cc1 (centres undefined)
inactive: [3] 100 % of control and 104 % of control and 105 % of control | [4] 105 % of control and 117 % of control and 89 % of control | dose: 200.0 mg/kg/injection, schedule: Q01DX009 (ip), vehicle: Klucel (hydroxypropylcellulose) (HPC) 99 % of control and 117 % of control and 123 % of control | dose: 400.0 mg/kg/injection, schedule: Q01DX009 (ip), vehicle: Klucel (hydroxypropylcellulose) (HPC) 105 % of control

O=C(Nc1cccc(Cl)c1)OCC(COC(=O)Nc1cccc(Cl)c1)(COC(=O)Nc1cccc(Cl)c1)[N+](=O)[O-]
inactive: [13] 95 % of control | [14] 98 % of control | [15] 100 % of control

Cc1cc(C)c(C2=NO[C@H]3c4ccccc4OC[C@@H]23)c(C)c1
inactive: [8] 105 % of control | [9] 96 % of control | [10] 89 % of control

NC(N)=NC(N)=Nc1c(F)c(F)c(F)c(F)c1F
inactive: dose: 6.25 mg/kg/injection, schedule: Q01DX009 (ip), vehicle: saline with Tween-80 107 % of control | dose: 12.5 mg/kg/injection, schedule: Q01DX009 (ip), vehicle: saline with Tween-80 100 % of control | [16] 101 % of control and 113 % of control | [17] 116 % of control

CCOC(=O)CCN(C(C)=O)C(CC(C)C)C(=O)OCC (centres undefined)
inactive: [13] 98 % of control | [14] 105 % of control | [15] 105 % of control

c1ccc(N=N/C(=N\Nc2ccccc2)SCCS/C(N=Nc2ccccc2)=N/Nc2ccccc2)cc1
inactive: [16] 98 % of control and 97 % of control | [17] 93 % of control and 97 % of control | dose: 100.0 mg/kg/injection, schedule: Q01DX009 (ip), vehicle: saline with Tween-80 111 % of control and 92 % of control | dose: 200.0 mg/kg/injection, schedule: Q01DX009 (ip), vehicle: saline with Tween-80 98 % of control

Nc1nnc2nc(CC(=O)c3cccc([N+](=O)[O-])c3)c(CC(=O)c3cccc([N+](=O)[O-])c3)nn12
inactive: dose: 60.0 mg/kg/injection, schedule: Q01DX005 (ip), vehicle: saline with Tween-80 96 % of control | dose: 120.0 mg/kg/injection, schedule: Q01DX005 (ip), vehicle: saline with Tween-80 100 % of control | dose: 240.0 mg/kg/injection, schedule: Q01DX005 (ip), vehicle: saline with Tween-80 100 % of control

O=c1cc(-c2ccccc2)c(N=Nc2ccccc2)c(S)n1-c1ccccc1
inactive: [13] 87 % of control | [14] 88 % of control | [15] 90 % of control

O=S1(=O)C2C=CCCC1C=C2 (centres undefined)
inactive: dose: 12.5 mg/kg/injection, schedule: Q01DX009 (ip), vehicle: saline 92 % of control | dose: 25.0 mg/kg/injection, schedule: Q01DX009 (ip), vehicle: saline 96 % of control | [11] 100 % of control | [18] 100 % of control

CCNCCC1(C)Oc2ccccc2O1
inactive: [1] 97 % of control

O=C(O)Cn1nnc2ccccc21
inactive: [12] 101 % of control | [18] 96 % of control

NC(CCC(=O)NC(CS(=O)(=O)O)C(=O)O)C(=O)O (centres undefined)
inactive: dose: 60.0 mg/kg/injection, schedule: Q01DX005 (ip), vehicle: saline 108 % of control | dose: 120.0 mg/kg/injection, schedule: Q01DX005 (ip), vehicle: saline 108 % of control | dose: 240.0 mg/kg/injection, schedule: Q01DX005 (ip), vehicle: saline 108 % of control

CCOC(=S)SC1CC2(C)C(CCC3C2CCC2(C)C(OC(C)=O)CCC32)CC1=O (centres undefined)
inactive: dose: 100.0 mg/kg/injection, schedule: Q04DX003 (ip), vehicle: saline 96 % of control | dose: 200.0 mg/kg/injection, schedule: Q04DX003 (ip), vehicle: saline 92 % of control | dose: 400.0 mg/kg/injection, schedule: Q04DX003 (ip), vehicle: saline 89 % of control

COc1ccc(OC)c2c(Cl)cc(N)nc12
inactive: [7] 102 % of control | [8] 106 % of control | [9] 101 % of control | [10] 102 % of control

C=C(C)c1c(C)nc2c(N)nc(N)[n+]([O-])c2[n+]1[O-]
inactive: dose: 37.5 mg/kg/injection, schedule: Q01DX009 (ip), vehicle: saline 108 % of control | dose: 75.0 mg/kg/injection, schedule: Q01DX009 (ip), vehicle: saline 118 % of control | dose: 150.0 mg/kg/injection, schedule: Q01DX009 (ip), vehicle: saline 101 % of control

COc1ccc(/C=C/c2cc(OC)cc(=O)o2)cc1
inactive: dose: 12.5 mg/kg/injection, schedule: Q04DX003 (ip), vehicle: saline with Tween-80 100 % of control | dose: 25.0 mg/kg/injection, schedule: Q04DX003 (ip), vehicle: saline with Tween-80 99 % of control | [5] 100 % of control | [6] 100 % of control
